Reference: US20220281879A1, “SALT AND CRYSTAL FORMS OF AN ACTIVIN RECEPTOR-LIKE KINASE INHIBITOR” (Blueprint Medicines Corporation, priority 2019, published 2022)
≈ marks a conversion by molar mass, not a printed value. Entries after “also recorded” stand apart in the source; their conditions may differ. Where a name gives a salt, the structure may show the parent alone. Read-outs that look alike come from different tables or passages of the source. Blank lines part the entries; values can stand above or below the compound they belong to.

Tests used:
[1] = Humidity exposure at 75% relative humidity / 40° C. for one week with XRPD; details: 75% RH / 40° C.
Description: The Sesqui-Succinate obtained in Example 2.1 was exposed to 75% relative humidity at 40° C. for one week. The samples were placed in a 4 mL vial covered with a Kimwipe® and then placed in a 20 mL vial containing 3-4 mL saturated NaCl in water. The 20 mL vials were sealed and held at 40° C. Solids were collected for XRPD analysis after one week.
HCl salt Monohydrate Form A was placed at 40° C./75% relative humidity for one week. About 10 mg sample was placed in a 4 mL vial covered with a Kimwipe®. The vial was then placed inside a 20 mL sealed vial containing saturated aqueous sodium chloride.

[2] = Drying and humidity exposure (>90% RH) with XRPD; details: for physical stability on humidity exposure: >90% RH, overnight / one day; for physical stability on humidity exposure / stability on drying and humidity exposure: XRPD; for physical stability in humid environment, prolonged: >90% relative humidity, days to one week; for stability on drying and humidity exposure: dried under vacuum at 50° C., then >90% RH one day
Description: XRPD analysis was done in three stages. XRPD of the wet cake was done for all samples (where solids were observed). Unique solids were then left on XRPD plates and dried under vacuum at 50° C. for at least 3 hours. XRPD of unique dry solids was then done. Solids were then exposed to >90% relative humidity for one day and XRPD on resulted solids was done. The humid environment was generated by placing a beaker of saturated potassium sulfate in water in a sealed container. All XRPD patterns were compared to counter ion XRPD patterns and known free molecule patterns.
A crystalline form of the free base was exposed to high humidity (>90% RH) overnight. The humid environment was generated by placing a beaker of saturated potassium sulfate in water in a sealed container.

[3] = Solubility at 37° C. in water and simulated fluids (FaSSIF, FaSSGF); assay type: physicochemical; details: for Solubility at 37° C. FaSSGF: fasted state simulated gastric fluid; for Solubility at 37° C. FaSSIF: fasted state simulated intestinal fluid
Text: Crystalline salts were characterized and evaluated for viability based on melting point, crystallinity, stability on drying and humidity exposure, water solubility, polymorphism, and acceptability of counter-ion.

[4] = Solubility in organic solvent systems at room temperature; assay type: physicochemical; details: organic solvent or mixture, most organic solvents tested
[5] = Dynamic Vapor Sorption (DVS); assay type: physicochemical; details: for DVS Mass Change: between 2 and 95% relative humidity at 25° C.; for XRPD after DVS measurement: after 2-95% RH cycle
Description: Dynamic Vapor Sorption (DVS) was done using a DVS Intrinsic 1. The sample was loaded into a sample pan and suspended from a microbalance. A typical sample mass for DVS measurement is 25 mg. Nitrogen gas bubbled through distilled water provides the desired relative humidity. The sample was held for a minimum of 5 min at each level and only progressed to the next humidity level if there was <0.002% change in weight between measurements (interval: 60 seconds) or […] had elapsed. A typical measurement comprises the steps: • 1—Equilibrate at 50% RH • 2—50% to 2%. (50%, 40%, 30%, 20%, 10% and 2%) • a. Hold minimum of 5 mins and maximum of 60 minutes at each humidity. • The pass criteria is less than 0.002% change • 3—2% to 95% (2%, 10%, 20%, 30%, 40%, 50%, 60%, 70%, 80%, 90%, 95%) • a. Hold minimum of 5 mins and maximum of 60 minutes at each humidity.
The pass criteria is less than 0.002% change • 4—95% to 2% (95%, 80%, 70%, 60%, 50%, 40%, 30%, 20%, 10%, 2%) • a. Hold minimum of 5 mins and maximum of 60 minutes at each humidity. • The pass criteria is less than 0.002% change • 5—2% to 50% (2%, 10%, 20%, 30%, 40%, 50%) • a. Hold minimum of 5 mins and maximum of 60 minutes at each humidity. • The pass criteria is less than 0.002% change

[6] = Exposure to dry conditions and re-humidification with XRPD; assay type: physicochemical
Description: The 1:1 Compound (I) Crystalline HCl salt Monohydrate obtained from Example 3.1 was exposed to various drying conditions and then analyzed by XRPD.
The conditions were: (1) room temperature in vial containing P2O5 at 50° C., (2) 60° C. under vacuum, and (3) heating to 140° C. in DSC.
The HCl salt exposed to P2O5 at 50° C. was sampled for XRPD at the 7 day mark.

[7] = Variable humidity and variable temperature XRPD (VH-XRPD, VT-XRPD); assay type: physicochemical; details: for variable humidity XRPD: change of crystalline structure: 0-90% RH; for variable temperature XRPD: change of crystalline structure: ambient to 160° C.
Description: Powder X-ray diffraction was done using a Rigaku MiniFlex 600 or a Bruker D8 Advance equipped with Lynxeye detector in reflection mode (i.e. Bragg-Brentano geometry). Samples were prepared on Si zero-return wafers. A typical scan is from 2θ of 4 to 30 degrees, with step size 0.05 degrees over five minutes with 40 kV and 15 mA. A high-resolution scan is from 2θ of 4 to 40 degrees, with step size 0.05 degrees over thirty minutes with 40 kV and 15 mA. Typical parameters for XRPD are listed below.

[8] = listed as free base of Compound (I)
[9] = listed as HCl salt Monohydrate Form A
[10] = listed as Compound (I) Sesqui-Succinate Form A
[11] = listed as Compound (I) Sesqui-Succinate salt Form A

Compound: CCOC1(c2ccc(-c3cc4c(N5CCN(C(=O)O[C@@H]6CCOC6)CC5)ccnn4c3)nc2)CCN(C(C)C)CC1 [Amorphous solid (Compound (I) Sesqui-Succinate)]
- physical stability after one week humidity exposure [1]: crystalline Form A

Compound: CCOC1(c2ccc(-c3cc4c(N5CCN(C(=O)O[C@@H]6CCOC6)CC5)ccnn4c3)nc2)CCN(C(C)C)CC1 [Benzoate]
- physical stability on humidity exposure ([2]; listed as benzoic acid): did not deliquesce
- water solubility (in words) ([3]; salt screening evaluation): poor water solubility

Compound: CCOC1(c2ccc(-c3cc4c(N5CCN(C(=O)O[C@@H]6CCOC6)CC5)ccnn4c3)nc2)CCN(C(C)C)CC1 [Besylate]
- physical stability on humidity exposure [2]: deliquesced
- physical stability on humidity exposure ([2]; listed as besylate): deliquescence

Compound: CCOC1(c2ccc(-c3cc4c(N5CCN(C(=O)O[C@@H]6CCOC6)CC5)ccnn4c3)nc2)CCN(C(C)C)CC1 [Compound (I)]
- solubility [4]: > 200 mg/mL
- physical stability on humidity exposure ([2]; listed as free base): lost some crystallinity
- physical stability in humid environment, prolonged ([2]; listed as free base): deliquesced
- physical stability in humid environment, prolonged [2, 8]: physically unstable
- physical stability in humid environment, prolonged ([2]; listed as freebase): turned into a sticky gum
- behaviour on exposure to water [2, 8]: tends to gum
- behaviour on exposure to water ([2]; listed as freebase): gums in water
- Solubility at 37° C. FaSSGF ([3]; listed as Freebase): 7.29 mg/mL (≈ 13 mM)
- Solubility at 37° C. FaSSGF ([3]; listed as freebase): ~17 mg/mL (≈ 30.2 mM)
- Solubility at 37° C. FaSSIF ([3]; listed as Freebase): 17.9 mg/mL (≈ 31.8 mM)
- Solubility at 37° C. FaSSIF ([3]; listed as freebase): ~7 mg/mL (≈ 12.4 mM)
- Solubility at 37° C. Water ([3]; water, listed as freebase): 0.08 mg/mL (≈ 0.142 mM)
- DVS mass change occurring above 70% relative humidity ([5]; 25° C., above 70% RH): 0.46-0.53 wt. %
- DVS Mass Change ([5]; listed as Freebase): 0.88-0.92 wt. %
- DVS Mass Change [5, 8]: 0.88-0.92 wt. %

Compound: CCOC1(c2ccc(-c3cc4c(N5CCN(C(=O)O[C@@H]6CCOC6)CC5)ccnn4c3)nc2)CCN(C(C)C)CC1 [Form D]
- physical stability after one week humidity exposure [1]: converted to Form A (monohydrate)
- physical stability on humidity exposure [2]: converted to Form A (monohydrate)
- form conversion on exposure to ambient conditions ([6]; bench, 22-23° C., 28-35% RH, 2.25 hours): converted to Form A

Compound: CCOC1(c2ccc(-c3cc4c(N5CCN(C(=O)O[C@@H]6CCOC6)CC5)ccnn4c3)nc2)CCN(C(C)C)CC1 [Form I]
- physical stability on humidity exposure [2]: partially converted to Form A

Compound: CCOC1(c2ccc(-c3cc4c(N5CCN(C(=O)O[C@@H]6CCOC6)CC5)ccnn4c3)nc2)CCN(C(C)C)CC1 [Mono-HCl Form A]
- physical stability after one week humidity exposure [1, 9]: minor peak shifts
- variable humidity XRPD: change of crystalline structure [7, 9]: small shift
- variable temperature XRPD: change of crystalline structure [7, 9]: does not appear to collapse and/or re-arrange
- physical stability on humidity exposure ([2]; listed as HCl (1 eq.)): did not deliquesce
- solubility in water and in simulated gastric fluids (in words) [3]: good solubility
- Solubility at 37° C. FaSSGF [3]: 6.96 mg/mL
- Solubility at 37° C. FaSSGF ([3]; listed as mono-HCl salt): > 30 mg/mL
- Solubility at 37° C. FaSSIF [3]: 30.9 mg/mL
- Solubility at 37° C. FaSSIF ([3]; listed as mono-HCl salt): ~7 mg/mL
- Solubility at 37° C. Water ([3]; water): 33.4 mg/mL
- Solubility at 37° C. Water ([3]; water, listed as mono-HCl salt): > 30 mg/mL
- XRPD after exposure to drying conditions ([6]; P2O5 at 50° C., 60° C. under vacuum, heating to 140° C. in DSC): a new XRPD pattern was observed
- DVS mass change occurring below 20% relative humidity ([5]; 25° C., below 20% RH): 0.99-1.11 wt. %
- XRPD after DVS measurement [5, 9]: extra peaks were observed
- DVS Mass Change [5]: 1.30-1.43 wt. %
- DVS Mass Change [5, 9]: 1.30-1.43 wt. %
- hygroscopicity (in words) ([5]; listed as 1:1 hydrochloric acid salt): non-hygroscopic

Compound: CCOC1(c2ccc(-c3cc4c(N5CCN(C(=O)O[C@@H]6CCOC6)CC5)ccnn4c3)nc2)CCN(C(C)C)CC1 [Salicylate]
- physical stability on humidity exposure ([2]; listed as salicylic acid): did not deliquesce

Compound: CCOC1(c2ccc(-c3cc4c(N5CCN(C(=O)O[C@@H]6CCOC6)CC5)ccnn4c3)nc2)CCN(C(C)C)CC1 [Succinate Form A]
- physical stability after one week humidity exposure [1, 10]: physically stable by XRPD
- variable humidity XRPD: change of crystalline structure [7, 11]: no change in the crystalline structure
- variable temperature XRPD: change of crystalline structure [7, 11]: no change in the crystalline structure
- physical stability on humidity exposure ([2]; listed as succinic acid): did not deliquesce
- stability on drying and humidity exposure [2]: stable on drying and humidity exposure
- solubility in water and in simulated gastric fluids (in words) [3]: good solubility
- Solubility at 37° C. FaSSGF [3]: >25.9 mg/mL
- Solubility at 37° C. FaSSIF [3]: >22.2 mg/mL
- solubility in water and simulated fluids (all fluids) ([3]; in all fluids): > 22 mg/mL
- Solubility at 37° C. Water ([3]; water): >34.0 mg/mL
- solubility ([3]; water, FaSSIF and FaSSGF (all fluids), thermodynamic from solid, in all fluids): > 22 mg/mL
- hygroscopicity (in words) [5]: less hygroscopic than the mono-HCl salt and freebase
- DVS mass change occurring above 80% relative humidity ([5]; 25° C., above 80% RH): 0.34-0.35 wt. %
- XRPD after DVS measurement [5, 10]: remained as Form-A
- DVS Mass Change [5]: 0.59-0.60 wt. %
- DVS Mass Change [5, 10]: 0.59-0.60 wt. %
- hygroscopicity (in words) ([5]; listed as 1.5:1 succinic acid salt): non-hygroscopic

Second part, led by results:

- physical stability on humidity exposure [2]: deliquesced
- physical stability on humidity exposure ([2]; listed as 2:1 HCl): deliquescence
Compound: CCOC1(c2ccc(-c3cc4c(N5CCN(C(=O)O[C@@H]6CCOC6)CC5)ccnn4c3)nc2)CCN(C(C)C)CC1 [bis-HCl]

- stability on drying and humidity exposure [2]: stable on drying and humidity exposure
Compound: CCOC1(c2ccc(-c3cc4c(N5CCN(C(=O)O[C@@H]6CCOC6)CC5)ccnn4c3)nc2)CCN(C(C)C)CC1 [fumarate Form B]

- solubility in water and in simulated gastric fluids (in words) [3]: good solubility
Compound: CCOC1(c2ccc(-c3cc4c(N5CCN(C(=O)O[C@@H]6CCOC6)CC5)ccnn4c3)nc2)CCN(C(C)C)CC1 [fumarate]

- physical stability on humidity exposure ([2]; listed as maleic acid): deliquesced
Compound: CCOC1(c2ccc(-c3cc4c(N5CCN(C(=O)O[C@@H]6CCOC6)CC5)ccnn4c3)nc2)CCN(C(C)C)CC1 [maleate]
- physical stability on humidity exposure [2]: deliquescence; also recorded: deliquesced
